Tests used:
DGAT [1] = test: Assay for inhibitory activity against DGAT ([14C]triacylglycerol formation, rat microsomal protein); format: biochemical; conditions: rat microsomal protein as enzyme source
Text: The derivatives of Chemical Formula 1 in accordance with the present invention are found to inhibit the enzymatic activity of DGAT at a dose-dependent manner (refer to Table 2 and FIG. 1) as measured in a test in which [^14C]triacylglycerol was quantitatively analyzed after enzymatic reaction between 1,2-diacylglycerol and [^14C]palmitoyl-CoA, with microsomal proteins from rats serving as an enzyme source (refer to Example 1).
After enzymatic reaction between two substrates 1,2-diacylglycerol (Sigma, D0138) and [^14C]palmitoyl-CoA (Amersham, CFA583) with the microsomal protein of rat serving as an enzyme source in accordance with Coleman et al, Methods Enzymol., 98-103, 1992, the resulting product [^14C] triacylglycerol was measured for radioactivity. In detail, to a reaction buffer (175 mM Tris-HCl, pH 8.0, 20 μl bovine serum albumin (10 mg/ml), 100 mM MgCl2, 30 μM [^14C] palmitoyl-CoA (0.02 μCi, Amersham) and 200 μM 1,2-dioleoyl glycerol) was added 10 μl of a solution of the samples in dimethylsulfoxide (DMSO) and then 100˜200 μl of an isolated microsomal protein, followed by reaction at 25° C. for 10 min. The reaction was terminated with 1.5 ml of a mixture of 80:20:2 2-propanol:heptane:water (v:v:v). Thereafter, the [^14C] triacylglycerol thus formed was separated. In this regard, 1 ml of heptane and 0.5 ml of distilled water were added to the reaction mixture, which was then shaken. 1 ml of the supernatant thus formed was mixed with 2 ml of an alkaline ethanol solution (ethanol:0.5 N sodium hydroxide:water=50:10:40, v:v:v), followed by shaking. After being taken, 0.65 ml of the supernatant thus formed was measured for radioactivity using an LSC (liquid scintillation counter). The inhibitory activity against DGAT was calculated according to the following Mathematical Formula 1. The inhibitory effects of the benzazole derivatives on DGAT are summarized in Table 2, below while % DGAT inhibition is plotted against doses of compound 22 and 31 in FIG. 1.
T: Cpm of a test group in which a sample was added to an enzymatic buffer,
C: Cpm of a control in which no samples were added to an enzymatic buffer,
B: Cpm of a control in which a sample was added in the absence of any enzyme source.

DGAT [2] = test: Assay for inhibitory effect on DGAT in cell (intracellular triglyceride production from [14C]acetate in HepG2 cells); format: cell-based, human
Protocol: The effect of the benzazole derivatives of Chemical Formula 1 in accordance with the present invention on DGAT was examined with HepG2 cells, hepatic cells derived from the human liver, as follows.
HepG2 cells, purchased from ATCC, were cultured in Eagle's minimum essential medium (MEM), 2 mM L-glutamine, with Earle's balanced salt solution (BSS) adjusted to contain, 1.5 g/L sodium bicarbonate, 0.1 mM non-essential amino acids and 1 mM sodium pyruvate, supplemented with 10% fetal bovine serum (FBS) and 1% antibiotics (100 U/ml penicillin and 100 µg/ml streptomycin) at 37° C. in a 5% CO2 incubator.
Intracellular DGAT activity was represented by the amount of triglycerides produced in the cultured HepG2 cells while the compounds (4, 8, 10, 22, 24, 25, 26, 39 and 31) of Chemical Formula 1 were assayed for inhibitory activity against DGAT by measuring the change in intracellular triglyceride production after the addition thereof.
Cells were plated at a density of 1×10^6 cell/ml per well into 24-well plates and incubated for 24 hours. Then, the medium was exchanged with FBS-free MEM and pre-treated with samples for 1 hour. Thereafter, 0.2 mCi of [^14C]acetate (Amersham) was added as a substrate to the cells, followed by incubation for 1 hour. The production of triglyceride was catalyzed by DGAT so that DGAT activity was determined by the amount of the triglyceride product, which could be measured by radioactivity. For use, the samples were dissolved in dimethyl sulfoxide (DMSO). In a control, triglycerides were synthesized using DMSO without any sample, with the production yield thereof given as 100.
The amount of the glyceride products synthesized was determined as follows. After completion of synthesis, the cells were suspended in PBS (phosphate-buffer-saline) to remove the substrate [^14C]acetate, whether unabsorbed into the cells or remaining unreacted, and total lipids, including triglycerides, were extracted twice for 30 min with 0.5 ml of an extraction solvent mixture (hexane:isopropanol=3:2, v:v). 1 ml of the extract was concentrated with nitrogen gas.
The total lipid residue thus formed was dissolved in an organic solvent mixture (chloroform:methanol=2:1) and loaded dropwise onto a thin layer chromatography plate (TLC; silica gel 60F254, 0.5 mm, Merck) using a mixture of 80:20:1 hexane:diethylether:acetic acid (v:v:v) as a developing solvent. After the separation of triglycerides (Rf value: 0.4) on TLC, the plate was brought into contact with an autoradiographic film for three hours, followed by image analysis (BAS-1500, Fuji Photo Film Co. Ltd.) to determine the [^14C] radioactivity of the triglycerides. The cells left after the extraction were suspended in 0.3 ml of a 0.1 N sodium hydroxide solution to measure the cellular protein concentration thereof.
The empirical values were obtained by dividing triglyceride radioactivity by protein level, with correction for experimental errors between test groups.

Sprague-Dawley rats = test: Acute toxicity, oral administration for two weeks, rats; format: in vivo; conditions: oral 100 and 250 mg/kg for two weeks
Protocol: An assay of the benzazole derivatives of Chemical Formula 1 in accordance with the present invention was performed for acute toxicity on mice (20±5 g, Central Lab. Animal Inc.) and rats (235±10 g, Central Lab. Animal Inc.).
For this, ICR mice and Sprague-Dawley rats were assigned to 4 groups of 10 and orally administered with Compound 22 in doses of 100 and 250 mg/kg for two weeks.

O=C(NCc1ccco1)c1ccc2oc(COc3ccc(C45CC6CC(CC(C6)C4)C5)cc3)nc2c1 [Cpd. 22, 2-(4-adamantan-1-yl-phenoxymethyl)-benzoxazole-5-carboxylic acid (furan-2-ylmethyl)-amide]
DGAT (% inhibition in 5 μM) (DGAT [1]; 5 μM): 42.8% | DGAT (% inhibition in 25 μM) (DGAT [1]; 25 μM): 78.03% | inhibition of the biosynthesis of triglycerides (DGAT [2]; 10 μM): 32.2% | Production Yield of Triglyceride (%) (DGAT [2]; final level 10 μM, DMSO control given as 100): 67.8 ± 7.2% | apparent symptoms (Sprague-Dawley rats): no apparent symptoms different from the control

From US8304448B2, “Method for the treatment of metabolic disorder containing benzazole derivatives as an active ingredient” (Korea Research Institute of Bioscience and Biotechnology, priority 2006, dated 2012)
